# Experimental data reported in US20100062441A1, “C-MET MUTATIONS AND USES THEREOF” (priority 2007, published 2010).
# Assays:
# [1] = test system: melanoma cell lines that expressed c-Met; test: Cell growth analysis (cell counting); type: cell-based; settings: Homo sapiens; 96 hrs, MEM with 10% serum
# Description: For measuring the effect of SU11274 on growth of melanoma cells, MM-AN, MU, PM-WK, MM-RU, MM-MC and RPM-EP cells were plated at 6×10^4 cells in 60 mm dishes in MEM with 10% serum. After 24 hrs different concentrations of SU11274 were added and after 96 hrs cells were trypsinized and counted in a cell counter (Beckman Coulter). Each data point was repeated in triplicate.
# [2] = test system: MITF, tyrosinase, gp-100, MART-1; test: Immunoblotting of melanoma differentiation proteins, densiometric analysis; type: cell-based, human; settings: 12 hrs after treatment; 10 μM SU11274
# Excerpt: SU11274: [(3Z)-N-(3-chlorophenyl)-3-({3,5-dimethyl-4-[(4-methylpiperazin-1-yl)carbonyl]-1H-pyrrol-2-yl}methylene)-N-methyl-2-oxo-2,3-dihydro-1H-indole-5-sulfonamide] (obtained from Pfizer Inc, San Diego, Calif.) was suspended in DMSO and kept in small aliquots at −20 degrees. Phosphospecific antibody to pY1230/1234/1235 (autophosphorylation site) was obtained from Biosource International, Camarillo, Calif. Phosphospecific antibodies for pS473 on AKT and pT421/pS424 on p70 S6-Kinase were obtained from Cell Signaling, Beverly, Mass. Total c-Met and BCLXL antibodies were obtained from Santa Cruz Biotechnology, Santa Cruz, Calif. and β-actin from Sigma Aldrich (St. Louis, Mo.). For detecting melanoma differentiation proteins the following antibodies were used anti-tyrosinase monoclonal antibody (clone T311, Nova-castra, New Castle upon Tyne, UK), anti-gp-100 monoclonal antibody (MO 634, Dako corporation, Carpinteria, Calif.) and anti-MART-1/Melan-A monoclonal antibody (clone M2-7C10, Signet, Dedham, Mass.).
# Cells were lysed in lysis buffer containing 20 mM Tris, pH 8.0; 150 mM NaCl, 10% glycerol, 1% NP40, 0.42% NaF, 1 mM PMSF, 1 mM Na3V04, 10 μl/ml Protease inhibitor cocktail (Sigma Aldrich, St. Louis, Mo.) as described previously (Maulik et al., Clin Cancer Res, 8: 620-7 (2002)). Cell lysates were separated by 7.5% or 10% SDS-PAGE electrophoresis under reducing conditions. Proteins were transferred to an immobilization membrane (Bio-Rad Laboratories, Hercules, Calif.) and immunoblotted using the enhanced chemiluminescence technique (PerkinElmer Life and analytical Sciences, Torrence, Calif.).
# siRNA against c-Met was obtained from Dharmacon (Lafayette, Colo.). Briefly four pooled SiRNA duplexes were transiently transfected into MU melanoma cells by the Dharmacon protocol utilizing Oligofectamine obtained from Invitrogen (Carlsbad, Calif.). Mock transfection was done in parallel using SignalSilence control SiRNA (Cell Signaling Technology) as negative control. For studies on the effect of Si RNA on differentiation proteins MU melanoma cells were transfected with Si RNA as described above and cell lysates were prepared after 12 hrs and immunoblotting performed as described above.
# It was hypothesized that SU11274 could not only induce a differentiated phenotype, but also MITF, tyrosinase and other melanocyte associated differentiation markers. […] The increase in the level of various differentiation proteins was determined by densiometric anaylsis after treatment with 10 μM SU11274.
# The effect of si RNA against c-Met was also studied on the proliferation and differentiation of MU melanoma cells. […] The increase in the level of various differentiation proteins was determined by densiometric anaylsis after treatment with c-Met si RNA.
structure (smiles),measurement,setting,value
"Cc1[nH]c(/C=C2\C(=O)Nc3ccc(S(=O)(=O)N(C)c4cccc(Cl)c4)cc32)c(C)c1C(=O)N1CCN(C)CC1 [SU11274, (3Z)-N-(3-chlorophenyl)-3-({3,5-dimethyl-4-[(4-methylpiperazin-1-yl)carbonyl]-1H-pyrrol-2-yl}methylene)-N-methyl-2-oxo-2,3-dihydro-1H-indole-5-sulfonamide]",IC50,[1],1000 to 2500 nM
same,increase in levels of MART-1,[2],2 fold
same,increase in levels of MITF,[2],3 fold
same,increase in levels of gp-100,[2],6 fold
same,increase in levels of tyrosinase,[2],12 fold
